Assay results as given in patent US20260240832A1, “USE OF NITROXOLINE COMPOUND IN ENHANCING EFFECT OF ANTIBACTERIAL AGENT” (Jiangsu Yahong Meditech Co., Ltd., priority 2022, published 2026).
Read-outs that look alike come from different tables or passages of the source.

What was measured:
[1] = tested on: carbapenem-resistant Acinetobacter baumannii; test: Chessboard microbroth dilution MIC/FIC, compound 2 in combination with polymyxin; format: cell-based; conditions: for MIC: Acinetobacter baumannii, read-out: Compound 2 MIC alone; for Compound 2 MIC in combination: with polymyxin; for Polymyxin MIC in combination: with compound 2
Source text: This experiment is designed to determine the minimum inhibitory concentration (MIC) of compound 2 in combination with polymyxin against carbapenem-resistant Acinetobacter baumannii and to calculate the fractional inhibitory concentration (FIC) index.
(§1) Test bacteria: 10 strains of carbapenem-resistant Acinetobacter baumannii are clinically isolated strains, and are provided by Shanghai Junji Medical Laboratory Co., Ltd.
(§2) According to the recommendation of the Clinical and Laboratory Standards Institute (CLSI), the microbroth dilution method designed by the chessboard method was used to determine the minimum inhibitory concentration (MIC) of compound 2 in combination with polymyxin against the above strains, and the fractional inhibitory concentration (FIC) index was calculated.
(§3) Compound 2 was dissolved in dimethyl sulfoxide to obtain a stock solution I with a concentration of 51200 mg/L. The stock solution I was subjected to 1:1 gradient dilution with dimethyl sulfoxide to obtain a dilution solution with a concentration range of 51200 to 25 mg/L. The corresponding concentrations were added to sterile water for 100-fold dilution to obtain working solution I with a concentration range of 512 to 0.25 mg/L.
Polymyxin was dissolved in sterile water to obtain a stock solution with a concentration of 5120 mg/L. The […] stock solution was subjected to 1:1 gradient dilution with sterile water to obtain a working solution II with a concentration range of 512 to 0.25 mg/L.
(§4) According to the method in Example 1, a drug sensitive plate was prepared with working solution I and working solution II, and the specific process will not be repeated here.
(§5) (2) The culture medium of the bacterial solution: Cation-Adjusted Mueller-Hinton Broth (CAMHB), a product of BBL, USA, batch number 9015952.
(§6) (3) Formulation method of bacterial solution: According to the direct colony suspension method, the test bacteria cultured overnight were prepared into a 0.5 McFarland turbidity tube using physiological saline. Then, the resulting solution was dilute 100 times with the above culture medium. 100 μL of the resulting bacterial solution was mixed well with the solution (100 μL) in each well of the drug sensitivity plate, and the final inoculation amount was 10^5 CFU/mL.
(§7) (4) Culture conditions: Culturing at 35±2° C. for 20 hours in air.
(§8) (1) The experimental results were determined according to the standard of CLSI 2020 M100 30th edition.
(§9) wherein: FIC≤0.5 indicates synergistic effect; 0.5<FIC≤1.0 indicates additive effect; 1<FIC≤2.0 indicates irrelevant effect; and FIC>2 indicates antagonistic effect.

[2] = tested on: carbapenem-resistant Acinetobacter baumannii; test: Chessboard microbroth dilution MIC/FIC, compound 1 in combination with polymyxin; format: cell-based; conditions: for Polymyxin MIC in combination: with compound 1
Source text: This experiment is designed to determine the minimum inhibitory concentration (MIC) of compound 1 in combination with polymyxin against carbapenem-resistant Acinetobacter baumannii and to calculate the fractional inhibitory concentration (FIC) index.
as §1
as §2, with “1” for “2”
as §3, with “Compound 1” for “Compound 2”
Polymyxin was dissolved in sterile water to obtain a stock solution with a concentration of 5120 mg/L. The polymyxin stock solution was subjected to 1:1 gradient dilution with sterile water to obtain a working solution II with a concentration range of 512 to 0.25 mg/L.
as §4, §5, §6, §7, §8, §9

[3] = strain 18-J11-001, compound 2 + polymyxin
[4] = strain 18-J11-002, compound 2 + polymyxin
[5] = strain 18-J11-034, compound 2 + polymyxin
[6] = strain 18-J11-097, compound 2 + polymyxin
[7] = strain 18-J15-030, compound 2 + polymyxin
[8] = strain 18-J21-095, compound 2 + polymyxin
[9] = strain 18-J24-015, compound 2 + polymyxin
[10] = strain 18-J24-033, compound 2 + polymyxin
[11] = strain 18-J40-021, compound 2 + polymyxin
[12] = strain 18-J51-052, compound 2 + polymyxin

## O=[N+]([O-])c1c(Cl)c(F)c2cccnc2c1O [Compound 2, 5-fluoro-6-chloro-7-nitroquinolin-8-ol]
[1]; strain 18-J11-001
  MIC: 8 µg/mL
  Compound 2 MIC in combination: 1 µg/mL
[1]; strain 18-J11-002
  MIC: 4 µg/mL
  Compound 2 MIC in combination: 1 µg/mL
[1]; strain 18-J11-034
  MIC: 4 µg/mL
  Compound 2 MIC in combination: 1 µg/mL
[1]; strain 18-J11-097
  MIC: 4 µg/mL
  Compound 2 MIC in combination: 0.5 µg/mL
[1]; strain 18-J15-030
  MIC: 4 µg/mL
  Compound 2 MIC in combination: 1 µg/mL
[1]; strain 18-J21-095
  MIC: 4 µg/mL
  Compound 2 MIC in combination: 2 µg/mL
[1]; strain 18-J24-015
  MIC: 4 µg/mL
  Compound 2 MIC in combination: 1 µg/mL
[1]; strain 18-J24-033
  MIC: 4 µg/mL
  Compound 2 MIC in combination: 2 µg/mL
[1]; strain 18-J40-021
  MIC: 4 µg/mL
  Compound 2 MIC in combination: 1 µg/mL
[1]; strain 18-J51-052
  MIC: 4 µg/mL
  Compound 2 MIC in combination: 1 µg/mL
[1]; compound 2 + polymyxin
  change of the MIC of polymyxin by the combination: significantly reduce
  effect of the combination (summary of Table 3): synergistic effect or additive effect
[1]; [3]
  FIC index: 0.375
  Results: Synergistic
[1]; [4]
  FIC index: 0.500
  Results: Synergistic
[1]; [5]
  FIC index: 0.750
  Results: Additive
[1]; [6]
  FIC index: 0.375
  Results: Synergistic
[1]; [7]
  FIC index: 0.750
  Results: Additive
[1]; [8]
  FIC index: 1.000
  Results: Additive
[1]; [9]
  FIC index: 0.500
  Results: Synergistic
[1]; [10]
  FIC index: 0.625
  Results: Additive
[1]; [11]
  FIC index: 0.500
  Results: Synergistic
[1]; [12]
  FIC index: 0.500
  Results: Synergistic

## polymyxin E [reference compound]
[1]; strain 18-J11-001
  Polymyxin MIC alone: 0.5 µg/mL
  Polymyxin MIC in combination: 0.125 µg/mL
[1]; strain 18-J11-002
  Polymyxin MIC alone: 1 µg/mL
  Polymyxin MIC in combination: 0.25 µg/mL
[1]; strain 18-J11-034
  Polymyxin MIC alone: 0.5 µg/mL
  Polymyxin MIC in combination: 0.25 µg/mL
[1]; strain 18-J11-097
  Polymyxin MIC alone: 0.5 µg/mL
  Polymyxin MIC in combination: 0.125 µg/mL
[1]; strain 18-J15-030
  Polymyxin MIC alone: 0.5 µg/mL
  Polymyxin MIC in combination: 0.25 µg/mL
[1]; strain 18-J21-095
  Polymyxin MIC alone: 0.5 µg/mL
  Polymyxin MIC in combination: 0.25 µg/mL
[1]; strain 18-J24-015
  Polymyxin MIC alone: 1 µg/mL
  Polymyxin MIC in combination: 0.25 µg/mL
[1]; strain 18-J24-033
  Polymyxin MIC alone: 1 µg/mL
  Polymyxin MIC in combination: 0.125 µg/mL
[1]; strain 18-J40-021
  Polymyxin MIC alone: 1 µg/mL
  Polymyxin MIC in combination: 0.25 µg/mL
[1]; strain 18-J51-052
  Polymyxin MIC alone: 1 µg/mL
  Polymyxin MIC in combination: 0.25 µg/mL
[2]; strain 18-J11-001
  Polymyxin MIC alone: 0.25 µg/mL
  Polymyxin MIC in combination: 0.06 µg/mL
[2]; strain 18-J11-002
  Polymyxin MIC alone: 0.25 µg/mL
  Polymyxin MIC in combination: 0.06 µg/mL
[2]; strain 18-J11-034
  Polymyxin MIC alone: 0.5 µg/mL
  Polymyxin MIC in combination: 0.125 µg/mL
[2]; strain 18-J11-097
  Polymyxin MIC alone: 0.25 µg/mL
  Polymyxin MIC in combination: 0.06 µg/mL
[2]; strain 18-J15-030
  Polymyxin MIC alone: 0.5 µg/mL
  Polymyxin MIC in combination: 0.125 µg/mL
[2]; strain 18-J21-095
  Polymyxin MIC alone: 0.25 µg/mL
  Polymyxin MIC in combination: 0.06 µg/mL
[2]; strain 18-J24-015
  Polymyxin MIC alone: 0.5 µg/mL
  Polymyxin MIC in combination: 0.125 µg/mL
[2]; strain 18-J24-033
  Polymyxin MIC alone: 0.5 µg/mL
  Polymyxin MIC in combination: 0.125 µg/mL
[2]; strain 18-J40-021
  Polymyxin MIC alone: 1 µg/mL
  Polymyxin MIC in combination: 0.125 µg/mL
[2]; strain 18-J51-052
  Polymyxin MIC alone: 0.5 µg/mL
  Polymyxin MIC in combination: 0.125 µg/mL
